Experimental data published in ChEMBL document CHEMBL3045827, “High osmolar contrast medium causes mild oxidation in liver, bladder, and ovary tissues from rats: vitamin C has protective role” (2010).

Assays:
[1] = system: Rattus norvegicus; experiment: Inhibition of ionic high-osmolar contrast medium-induced oxidative stress in Rattus norvegicus Wistar albino (rat) liver assessed as MDA level at 250 mg/kg/day administered through drinking water measured on 6th day by TBARS method (reference value: 0.579 +/- 0.129 %); type: functional; set-up: scale not given: the % may be the effect or the level left
[2] = system: Rattus norvegicus; experiment: Inhibition of ionic high-osmolar contrast medium-induced oxidative stress in Rattus norvegicus Wistar albino (rat) liver assessed as GSH-Px activity at 250 mg/kg/day administered through drinking water measured on 6th day (reference value: 0.056 +/- 0.019 IU); type: functional
[3] = system: Rattus norvegicus; experiment: Inhibition of ionic high-osmolar contrast medium-induced oxidative stress in Rattus norvegicus Wistar albino (rat) liver assessed as SOD activity at 250 mg/kg/day administered through drinking water measured on 6th day by NBT reduction method (reference value: 146.4 +/- 25.89 U/mg); type: functional
[4] = system: Rattus norvegicus; experiment: Inhibition of ionic high-osmolar contrast medium-induced oxidative stress in Rattus norvegicus Wistar albino (rat) liver assessed as NO level at 250 mg/kg/day administered through drinking water measured on 6th day by Griess reaction method (reference value: 1.082 +/- 0.359%); type: functional; set-up: scale not given: the % may be the effect or the level left
[5] = system: Rattus norvegicus; experiment: Inhibition of ionic high-osmolar contrast medium-induced oxidative stress in Rattus norvegicus Wistar albino (rat) bladder assessed as MDA level at 250 mg/kg/day administered through drinking water measured on 6th day by TBARS method (reference value: 1.180 +/- 0.803 %); type: functional; set-up: scale not given: the % may be the effect or the level left
[6] = system: Rattus norvegicus; experiment: Inhibition of ionic high-osmolar contrast medium-induced oxidative stress in Rattus norvegicus Wistar albino (rat) ovary assessed as MDA level at 250 mg/kg/day administered through drinking water measured on 6th day by TBARS method (reference value: 0.986 +/- 0.323 %); type: functional, Female gonad; set-up: scale not given: the % may be the effect or the level left
[7] = system: Rattus norvegicus; experiment: Inhibition of ionic high-osmolar contrast medium-induced oxidative stress in Rattus norvegicus Wistar albino (rat) liver assessed as NOS activity at 250 mg/kg/day administered through drinking water measured on 6th day (reference value: 0.208 +/- 0.031 mIU/ml); type: functional
[8] = system: Rattus norvegicus; experiment: Inhibition of ionic high-osmolar contrast medium-induced oxidative stress in Rattus norvegicus Wistar albino (rat) liver assessed as catalase activity at 250 mg/kg/day administered through drinking water measured on 6th day (reference value: 119.8 +/- 13.43 IU); type: functional

## O=C1O[C@H]([C@@H](O)CO)C(O)=C1O [ASCORBIC ACID]
[1]
  Activity: 0.49%
[2]
  Activity: 0.05 IU
[3]
  Activity: 193.2 U/mg
[4]
  Activity: 0.965%
[5]
  Activity: 0.821%
[6]
  Activity: 0.762%
[7]
  Activity: 0.224 mIU/ml
[8]
  Activity: 118.9 IU
